Results as given in patent US20180002288A1, “USE OF PICOLINAMIDES AS FUNGICIDES” (DOW AGROSCIENCES LLC, priority 2014, published 2018).
Read-outs that look alike come from different tables or passages of the source.

Assays:
Zymoseptoria tritici = assay: Leaf Blotch of Wheat fungicidal activity (SEPTTR); type: in vivo; conditions: Low Volume Cereal Activity at 121.5 g/Ha
Puccinia triticina = assay: Wheat Brown Rust fungicidal activity (PUCCRT); type: in vivo; conditions: Low Volume Cereal Activity at 121.5 g/Ha
Phakopsora pachyrhizi = assay: Asian Soybean Rust fungicidal activity (PHAKPA); conditions: Phakopsora pachyrhizi, in Glycine max
[1] = 24 h, 1 Day Protectant, read-out: SEPTTR 1DP (Wheat Leaf Blotch, 1 Day Protectant)
[2] = 72 h, 3 Day Curative, read-out: SEPTTR 3DC (Wheat Leaf Blotch, 3 Day Curative)
[3] = 24 h, 1 Day Protectant, read-out: PUCCRT 1DP (Wheat Brown Rust, 1 Day Protectant)
[4] = 72 h, 3 Day Curative, read-out: PUCCRT 3DC (Wheat Brown Rust, 3 Day Curative)
[5] = 24 h, read-out: PHAKPA 1DP % Control rating, soybean, high volume, 25 ppm, 1 Day Protectant
[6] = 72 h, read-out: PHAKPA 3DC % Control rating, soybean, high volume, 25 ppm, 3 Day Curative

Row | Compound | pest or weed control at 121.5 g/ha (Zymoseptoria tritici; [1]) [%] | pest or weed control at 121.5 g/ha (Zymoseptoria tritici; [2]) [%] | pest or weed control at 121.5 g/ha (Puccinia triticina; [3]) [%] | pest or weed control at 121.5 g/ha (Puccinia triticina; [4]) [%] | pest or weed control at 25 ppm (Phakopsora pachyrhizi; [5]) [%] | pest or weed control at 25 ppm (Phakopsora pachyrhizi; [6]) [%]
1 | COc1cc(F)ccc1[C@@H](OC(=O)C1CC1)[C@H](C)OC(=O)[C@H](C)NC(=O)c1nccc(OC)c1OC(C)=O [Example 297] | < 0 | < 80 | < 0 | < 0 | < 80 | < 80
2 | COc1ccnc(C(=O)N[C@@H](C)C(=O)O[C@@H](C)[C@H](OCC2CC2)c2ccccc2)c1OCOC(C)=O [Example 182] | > 80 | > 80 | > 80 | > 80 | > 80 | < 80
3 | COc1ccnc(C(=O)N[C@@H](C)C(=O)O[C@@H](C)[C@H](Oc2ccccc2Cl)c2ccccc2)c1OCOC(C)=O [Example 204] | < 80 | > 80 | > 80 | > 80 | > 80 | < 80
4 | CCCOc1cc(F)ccc1[C@@H](Oc1ccccc1)[C@H](C)OC(=O)[C@H](C)NC(=O)c1nccc(OC)c1OC(C)=O [Example 268] | > 80 | > 80 | > 80 | > 80 | < 80 | < 80
5 | COc1cc(F)ccc1[C@@H](Oc1ccc(C)cc1)[C@H](C)OC(=O)[C@H](C)NC(=O)c1nccc(OC)c1OC(C)=O [Example 271] | > 80 | > 80 | > 80 | < 0 | < 80 | < 80
6 | COc1ccnc(C(=O)N[C@@H](C)C(=O)O[C@@H](C)[C@H](Oc2ccccc2)c2ccc(F)cc2OCC2CC2)c1OC(C)=O [Example 272] | > 80 | > 80 | > 80 | > 80 | < 80 | < 0
7 | COc1ccnc(C(=O)N[C@@H](C)C(=O)O[C@@H](C)[C@H](Oc2ccccc2)c2ccc(F)cc2)c1OC(C)=O [Example 242] | > 80 | > 80 | > 80 | > 80 | > 80 | < 80
8 | C=CCOc1cc(F)ccc1[C@@H](Oc1ccccc1)[C@H](C)OC(=O)[C@H](C)NC(=O)c1nccc(OC)c1OC(C)=O [Example 264] | > 80 | > 80 | > 80 | < 0 | < 80 | < 80
9 | COc1cc(F)ccc1[C@@H](Oc1ccc(C)cc1Cl)[C@H](C)OC(=O)[C@H](C)NC(=O)c1nccc(OC)c1OC(C)=O [Example 266] | > 80 | > 80 | > 80 | < 80 | < 80 | < 0
10 | COc1ccnc(C(=O)N[C@@H](C)C(=O)O[C@@H](C)[C@H](Oc2ccccc2)c2ccc(F)cc2OC(C)=O)c1OC(C)=O [Example 267] | > 80 | < 80 | < 80 | < 0 | < 80 | < 80
11 | CCCO[C@H](c1ccccc1)[C@H](C)OC(=O)[C@H](C)NC(=O)c1nccc(OC)c1OC(C)=O [Example 228] | < 80 | > 80 | > 80 | > 80 | > 80 | < 0
